These results are taken from patent US11235976B2, “Nanocarbon-iron composite system as well as composition, preparation method and use thereof” (Chongqing Lummy Pharmaceutical Co., LTD, priority 2017, dated 2022).

Assay [1] concerns HCT116 colon cancer cells. In words: Cell experiment, cell survival rate. The note with it: iron preparation alone 13.65 μg/mL, 48 h. It is filed as cell-based. As for the experimental part:
(§1) Cells growing in a log phase are collected, the concentration of the cell suspension is adjusted, 100 μL of cell suspension is added to each well and the cells are plated (edge wells are filled with sterile PBS) at a density of 1×10^3-10^4 cells/well. The cells are incubated for 24 hours at 37° C. under the condition of 5% CO2, a nanocarbon-iron solution having a concentration gradient (nanocarbon content: 125, 62.5, 15.63 and 3.91 μg/mL; and ferric ion content: 13.65, 6.83, 1.71 and 0.43 μg/mL) is added, and three sub-wells are set. Then the cells are incubated for 48 hours at 37° C. under the condition of 5% CO2. 10 μL of CCK8 solution is added to each well and then the cells are continuously incubated for 2 hours. The absorbance of each well is measured at OD=450 nm with the microplate reader. In addition, a negative control group, nanocarbon control groups having the same concentration and iron preparation control groups having the same concentration are set.
as §1, with “and 1” for “100”, “of a 6-well plate” for “and the cells are plated (edge wells are filled with sterile PBS)”, “3×10^4” for “1×10^3-10^4”, “1.71,” for “1.71 and”, “The” for “10 μL of CCK8 solution is added to each well and then the”, “trypsinized and counted.” for “continuously incubated for 2 hours. The absorbance of each well is measured at OD=450 nm with the microplate reader.”

For assay [2], the system named is SGC-7901 stomach cancer cells. Nature of the assay: Cell experiment, cell survival rate. It is filed as cell-based. The note with it: 48 h. As for the experimental part: as §1
as §1, with “and 1” for “100”, “of a 6-well plate” for “and the cells are plated (edge wells are filled with sterile PBS)”, “3×10^4” for “1×10^3-10^4”, “1.71,” for “1.71 and”, “The” for “10 μL of CCK8 solution is added to each well and then the”, “trypsinized and counted.” for “continuously incubated for 2 hours. The absorbance of each well is measured at OD=450 nm with the microplate reader.”

Assay [3] relates to SMMC7721 liver cancer cells. In words: Cell experiment, cell survival rate. The note with it: SMMC-7721, 48 h. Format: cell-based. The procedure:
as §1
as §1, with “and 1” for “100”, “of a 6-well plate” for “and the cells are plated (edge wells are filled with sterile PBS)”, “3×10^4” for “1×10^3-10^4”, “1.71,” for “1.71 and”, “The” for “10 μL of CCK8 solution is added to each well and then the”, “trypsinized and counted.” for “continuously incubated for 2 hours. The absorbance of each well is measured at OD=450 nm with the microplate reader.”

Assay [4] concerns Hela cervical cancer cells. In words: Cell experiment, cell survival rate. Format: cell-based. The note with it: 48 h. The procedure: as §1
as §1, with “and 1” for “100”, “of a 6-well plate” for “and the cells are plated (edge wells are filled with sterile PBS)”, “3×10^4” for “1×10^3-10^4”, “1.71,” for “1.71 and”, “The” for “10 μL of CCK8 solution is added to each well and then the”, “trypsinized and counted.” for “continuously incubated for 2 hours. The absorbance of each well is measured at OD=450 nm with the microplate reader.”

In assay [5] the test system is H22 metastatic lymph nodes. In words: Lymph node metastasis inhibition experiment. It is filed as in vivo, Kunming mouse. The note with it: popliteal lymph nodes. The procedure:
(§2) Milky white and thick ascites is extracted from the H22 tumor-bearing mice, the concentration is adjusted to be 3×10^7 cells/mL, 0.05 mL of cell suspension (about 1.5×10^6 cells) is inoculated subcutaneously into the left hind foot pads of each Kunming mouse, and thus a lymph node metastasis mouse model is obtained. The mice are treated when the diameter of the tumor reaches 6-8 mm and there is no ulcer and necrosis. The mice are randomly divided into four groups (10 mice per group): a negative control group (0.9% sodium chloride injection), a nanocarbon control group, an iron preparation control group and a nanocarbon-iron suspension experimental group. 10 days after inoculation, the mice are killed, and popliteal lymph nodes are collected, weighed and fixed for pathological examination.

In assay [6] the test system is subcutaneous transplantation tumors of 9 types of cancer cells. Nature of the assay: Tumor growth inhibition experiments, subcutaneous transplantation tumors. The note with it: FIGS. 4-39. It is filed as in vivo, mice. As for the experimental part:
Cells growing in a log phase are collected, the concentration of the cell suspension is adjusted to 3×10^7 cells/mL, and the cell suspension is inoculated subcutaneously into the right upper extremities of nude mice at the inoculation dosage of 0.1 mL (about 3×10^6 cells) per mouse. When the average tumor volume of the inoculated mice reaches 100 mm^3, the tumor-bearing mice are randomly divided into the following groups (8 nude mice per group): a negative control group (0.9% sodium chloride injection), a nanocarbon control group, an iron preparation control group, a nanocarbon-iron suspension experimental group, and a cis-platinum control group (intraperitoneal injection at the dosage of 5 mg/kg). The above various drugs are injected into the tumors. The tumor volume changes are recorded, and the formula for calculating the volume is Volume=(length×the square of width)/2.
Milky white and thick ascites is extracted from the H22 tumor-bearing mice, the concentration of the cell suspension is adjusted to be 3×10^7 cells/mL, 0.1 mL of cell suspension (about 3×10^6 cells) is inoculated subcutaneously into the right upper extremity of each of Kunming mice. When the average tumor volume of the inoculated mice reaches 100 mm^3, the tumor-bearing mice are randomly divided into the following groups (8 mice per group): a negative control group (0.9% sodium chloride injection), a nanocarbon control group, an iron preparation control group, a nanocarbon-iron suspension experimental group, and a cis-platinum control group (intraperitoneal injection at the dosage of 5 mg/kg). The above various drugs are injected into the tumors. The tumor volume changes are recorded, and the formula for calculating the volume is Volume=(length×the square of width)/2.

Assay [7] relates to SKOV3 metastatic lymph nodes. In words: Lymph node metastasis inhibition experiment. The note with it: popliteal lymph nodes. It is filed as in vivo, nude mouse. As for the experimental part: as §2, with “Cells growing in a log phase are collected,” for “Milky white and thick ascites is extracted from the H22 tumor-bearing mice,”, “concentration of the cell suspension” for “concentration”, “to” for “to be”, “the” for “0.05 mL of”, “suspension” for “suspension (about 1.5×10^6 cells)”, “nude mouse at the inoculation volume of 0.05 mL (about 1.5×10^6 cells)” for “Kunming mouse,”

The subject of assay [8] is SGC-7901 metastatic lymph nodes. Nature of the assay: Lymph node metastasis inhibition experiment. Format: in vivo, nude mouse. The note with it: popliteal lymph nodes. The procedure:
as §2, with “Cells growing in a log phase are collected,” for “Milky white and thick ascites is extracted from the H22 tumor-bearing mice,”, “concentration of the cell suspension” for “concentration”, “to” for “to be”, “the” for “0.05 mL of”, “suspension” for “suspension (about 1.5×10^6 cells)”, “nude mouse at the inoculation volume of 0.05 mL (about 1.5×10^6 cells)” for “Kunming mouse,”

In assay [9] the test system is SMMC-7721 metastatic lymph nodes. In words: Lymph node metastasis inhibition experiment. It is filed as in vivo, nude mouse. The note with it: popliteal lymph nodes. As for the experimental part:
as §2, with “Cells growing in a log phase are collected,” for “Milky white and thick ascites is extracted from the H22 tumor-bearing mice,”, “concentration of the cell suspension” for “concentration”, “to” for “to be”, “the” for “0.05 mL of”, “suspension” for “suspension (about 1.5×10^6 cells)”, “nude mouse at the inoculation volume of 0.05 mL (about 1.5×10^6 cells)” for “Kunming mouse,”

The test system of assay [10] is Hela metastatic lymph nodes. In words: Lymph node metastasis inhibition experiment. Format: in vivo, nude mouse. The note with it: popliteal lymph nodes. As for the experimental part: as §2, with “Cells growing in a log phase are collected,” for “Milky white and thick ascites is extracted from the H22 tumor-bearing mice,”, “concentration of the cell suspension” for “concentration”, “to” for “to be”, “the” for “0.05 mL of”, “suspension” for “suspension (about 1.5×10^6 cells)”, “nude mouse at the inoculation volume of 0.05 mL (about 1.5×10^6 cells)” for “Kunming mouse,”

Assay [11] deals with TPC-1 metastatic lymph nodes. Nature of the assay: Lymph node metastasis inhibition experiment. Format: in vivo, nude mouse. The note with it: popliteal lymph nodes. The procedure: as §2, with “Cells growing in a log phase are collected,” for “Milky white and thick ascites is extracted from the H22 tumor-bearing mice,”, “concentration of the cell suspension” for “concentration”, “to” for “to be”, “the” for “0.05 mL of”, “suspension” for “suspension (about 1.5×10^6 cells)”, “nude mouse at the inoculation volume of 0.05 mL (about 1.5×10^6 cells)” for “Kunming mouse,”

The subject of assay [12] is A549 metastatic lymph nodes. In words: Lymph node metastasis inhibition experiment. It is filed as in vivo, nude mouse. The note with it: popliteal lymph nodes. As for the experimental part: as §2, with “Cells growing in a log phase are collected,” for “Milky white and thick ascites is extracted from the H22 tumor-bearing mice,”, “concentration of the cell suspension” for “concentration”, “to” for “to be”, “the” for “0.05 mL of”, “suspension” for “suspension (about 1.5×10^6 cells)”, “nude mouse at the inoculation volume of 0.05 mL (about 1.5×10^6 cells)” for “Kunming mouse,”

Assay [13] has as its system MDA-MB-231 metastatic lymph nodes. Nature of the assay: Lymph node metastasis inhibition experiment. Format: in vivo, nude mouse. The note with it: popliteal lymph nodes. As for the experimental part:
as §2, with “Cells growing in a log phase are collected,” for “Milky white and thick ascites is extracted from the H22 tumor-bearing mice,”, “concentration of the cell suspension” for “concentration”, “to” for “to be”, “the” for “0.05 mL of”, “suspension” for “suspension (about 1.5×10^6 cells)”, “nude mouse at the inoculation volume of 0.05 mL (about 1.5×10^6 cells)” for “Kunming mouse,”

Assay [14] deals with HCT116 metastatic lymph nodes. Nature of the assay: Lymph node metastasis inhibition experiment. It is filed as in vivo, nude mouse. The note with it: popliteal lymph nodes. As for the experimental part:
as §2, with “Cells growing in a log phase are collected,” for “Milky white and thick ascites is extracted from the H22 tumor-bearing mice,”, “concentration of the cell suspension” for “concentration”, “to” for “to be”, “the” for “0.05 mL of”, “suspension” for “suspension (about 1.5×10^6 cells)”, “nude mouse at the inoculation volume of 0.05 mL (about 1.5×10^6 cells)” for “Kunming mouse,”

Assay [15] concerns lymph node metastasis of 9 types of tumor cells. In words: Lymph node metastasis inhibition experiment, summary. It is filed as in vivo, mice. The procedure: as §2, with “Cells growing in a log phase are collected,” for “Milky white and thick ascites is extracted from the H22 tumor-bearing mice,”, “concentration of the cell suspension” for “concentration”, “to” for “to be”, “the” for “0.05 mL of”, “suspension” for “suspension (about 1.5×10^6 cells)”, “nude mouse at the inoculation volume of 0.05 mL (about 1.5×10^6 cells)” for “Kunming mouse,”
as §2

The mark [16] stands for this setting: iron preparation alone 0.43 μg/mL.
Setting [17] is: iron preparation alone 1.71 μg/mL.
Setting [18] is: iron preparation alone 6.83 μg/mL.
Setting [19] is: iron preparation alone 13.65 μg/mL.

As to ferrous gluconate, the “Cell Survival Rate” value in assay [1] is given as 98.67%; in assay [2] (setting [16]), 100%; in assay [2] (setting [17]), 100%; in [2] (setting [18]) it was 99.48%; in assay [2] (setting [19]) it was 97.43%; in assay [3] (setting [16]), 100%. In addition, the “Cell Survival Rate” value was found to be 96.12% in assay [3] (setting [17]); 97.68% in [3] (setting [18]); 100% in assay [3] (setting [19]); 100% in assay [4] (setting [16]); 100% in assay [4] (setting [17]); 100% in assay [4] (setting [18]). In addition, the “Cell Survival Rate” value in [4] (setting [19]) turned out to be 97.86%. Besides, the “Weight of Lymph Node” value in [5] came to 57.19 ± 15.92 mg; in [7] it was 33.57 ± 5.94 mg; in [8], 52.14 ± 17.43 mg; in assay [9], 58.97 ± 19.63 mg; in assay [10] it was 32.14 ± 21.36 mg; in assay [11] it was 40.16 ± 9.03 mg. In addition, the “Weight of Lymph Node” value is 47.58 ± 20.34 mg in [12], 40.19 ± 20.69 mg in assay [13] and 55.18 ± 20.12 mg in assay [14]. Besides, the “inhibition effect on growth of 9 types of tumors” value in assay [6] was “do not have an inhibition effect”. In assay [15], the “inhibition effect on the metastatic lymph nodes” value is recorded as “do not have an inhibition effect”.
